Results published in patent US9957274B2, “Indane inhibitors of EED and methods of their use” (AbbVie Inc., priority 2016, dated 2018).
pIC50: −log10 of the molar value.

Target: EED (Homo sapiens, UniProt O75530)
Experiment: EED TR-FRET Binding Assay (modified LanthaScreen competition assay)
Description: Compounds were tested in a modified LanthaScreen competition assay.
The following buffer was used to set up the binding reactions: 20 mM Tris-HCl pH 7.5, 200 mM NaCl, 0.01% Tween-20, 10 uM DTT (dithiothreitol), and 0.05% BSA (bovine serum albumin), with the DTT and BSA added fresh prior to initiating the binding assay. […] The reactions were then incubated for 1 hour at 25° C. in a humidified chamber prior to detection on the Perkin Elmer Envision plate reader using a Lanthascreen TR-FRET protocol.

Sequence of EED (O75530 whole entry): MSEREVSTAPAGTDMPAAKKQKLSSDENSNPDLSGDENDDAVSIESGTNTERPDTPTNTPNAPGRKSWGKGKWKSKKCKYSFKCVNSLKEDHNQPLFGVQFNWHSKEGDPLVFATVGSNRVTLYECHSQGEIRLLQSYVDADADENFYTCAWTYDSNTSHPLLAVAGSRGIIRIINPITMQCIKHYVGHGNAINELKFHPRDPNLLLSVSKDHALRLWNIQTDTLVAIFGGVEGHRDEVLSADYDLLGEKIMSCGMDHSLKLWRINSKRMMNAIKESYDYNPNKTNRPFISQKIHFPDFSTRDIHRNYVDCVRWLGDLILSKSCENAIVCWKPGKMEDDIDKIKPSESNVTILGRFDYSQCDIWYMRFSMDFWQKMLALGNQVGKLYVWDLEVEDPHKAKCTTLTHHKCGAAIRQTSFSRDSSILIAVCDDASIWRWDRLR

| SMILES | pIC50 |
| --- | --- |
| CN(C)[C@H]1CN([C@H]2C[C@H](O)c3cccc(F)c32)C[C@@H]1c1ccc(S(C)(=O)=O)cc1 (mixture of isomers) [Example 18, rac-(1S,3S)-3-{(3R,4S)-3-(dimethylamino)-4-[4-(methanesulfonyl)phenyl]pyrrolidin-1-yl}-4-fluoro-2,3-dihydro-1H-inden-1-ol] | 7.79 |
| COC(=O)c1ccc([C@H]2CN(C3CCc4cccc(F)c43)C[C@@H]2N(C)C)cc1C (mixture of isomers) [Example 39, rac-methyl 4-[(3S,4R)-4-(dimethylamino)-1-(7-fluoro-2,3-dihydro-1H-inden-1-yl)pyrrolidin-3-yl]-2-methylbenzoate] | 8.97 |
| COC(=O)c1ccc2c([C@@H]3CN(C4CCc5cccc(F)c54)C[C@H]3N(C)C)cn(C)c2c1 (mixture of isomers) [Example 83, rac-methyl 3-[(3R,4S)-4-(dimethylamino)-1-(7-fluoro-2,3-dihydro-1H-inden-1-yl)pyrrolidin-3-yl]-1-methyl-1H-indole-6-carboxylate] | 7.96 |
| COC(=O)c1cccc2c([C@H]3CN(C4CCc5cccc(F)c54)C[C@@H]3N(C)C)cn(C)c12 (mixture of isomers) [Example 85, rac-methyl 3-[(3S,4R)-4-(dimethylamino)-1-(7-fluoro-2,3-dihydro-1H-inden-1-yl)pyrrolidin-3-yl]-1-methyl-1H-indole-7-carboxylate] | 9.25 |
| CC(=O)N1CCN(c2ccc([C@H]3CN(C4CCc5ccccc54)C[C@@H]3N(C)C)cc2)CC1 (stereo partly drawn) [Example 42, 1-(4-{4-[(3S,4R)-1-(2,3-dihydro-1H-inden-1-yl)-4-(dimethylamino)pyrrolidin-3-yl]phenyl}piperazin-1-yl)ethan-1-one] | < 4.30 |
| Cc1coc(-c2ccc([C@@H]3CN(C4CCc5cccc(F)c54)C[C@H]3N(C)C)cc2)n1 (mixture of isomers) [Example 69, rac-(3S,4R)-1-(7-fluoro-2,3-dihydro-1H-inden-1-yl)-N,N-dimethyl-4-[4-(4-methyl-1,3-oxazol-2-yl)phenyl]pyrrolidin-3-amine] | 8.41 |
| CN(C)[C@@H]1CN([C@H]2CCc3ccccc32)C[C@H]1c1ccc(S(C)(=O)=O)cc1 [Example 10, (3S,4R)-1-[(1S)-2,3-dihydro-1H-inden-1-yl]-4-[4-(methanesulfonyl)phenyl]-N,N-dimethylpyrrolidin-3-amine] | 6.54 |
| Cc1cc([C@H]2CN(C3c4ccccc4CC3O)C[C@@H]2N(C)C)ccc1C#N (mixture of isomers) [Example 38, rac-4-[(3S,4R)-4-(dimethylamino)-1-(2-hydroxy-2,3-dihydro-1H-inden-1-yl)pyrrolidin-3-yl]-2-methylbenzonitrile] | 7.16 |
| COC(=O)c1cccc2c([C@@H]3CN(C4CCc5cccc(F)c54)C[C@H]3N(C)C)cn(C)c12 (stereo partly drawn) [Example 86, methyl 3-[(3R,4S)-4-(dimethylamino)-1-(7-fluoro-2,3-dihydro-1H-inden-1-yl)pyrrolidin-3-yl]-1-methyl-1H-indole-7-carboxylate] | 7.83 |
| CC(=O)N1CCN(c2ccc([C@@H]3CN([C@H]4CCc5cccc(F)c54)C[C@H]3N(C)C)cc2)CC1 [Example 47, 1-[4-(4-{(3R,4S)-4-(dimethylamino)-1-[(1S)-7-fluoro-2,3-dihydro-1H-inden-1-yl]pyrrolidin-3-yl}phenyl)piperazin-1-yl]ethan-1-one] | 7.37 |
| CN(C)[C@H]1CN(C2CCc3cccc(Cl)c32)C[C@@H]1c1ccc(C(=O)O)cc1 (mixture of isomers) [Example 28, rac-4-[(3S,4R)-1-(7-chloro-2,3-dihydro-1H-inden-1-yl)-4-(dimethylamino)pyrrolidin-3-yl]benzoic acid] | 6.31 |
| Cc1cc([C@H]2CN(C3CCc4cccc(F)c43)C[C@@H]2N(C)C)ccc1C(=O)O (mixture of isomers) [Example 36, rac-4-[(3S,4R)-4-(dimethylamino)-1-(7-fluoro-2,3-dihydro-1H-inden-1-yl)pyrrolidin-3-yl]-2-methylbenzoic acid] | 7.84 |
| CN(C)[C@H]1CN([C@@H]2C[C@@H](O)c3cccc(F)c32)C[C@@H]1c1ccc(S(C)(=O)=O)cc1 (mixture of isomers) [Example 16, rac-(1R,3R)-3-{(3R,4S)-3-(dimethylamino)-4-[4-(methanesulfonyl)phenyl]pyrrolidin-1-yl}-4-fluoro-2,3-dihydro-1H-inden-1-ol] | 6.31 |
| CC(=O)N1CCN(c2ccc([C@@H]3CN([C@@H]4CCc5cccc(F)c54)C[C@H]3N(C)C)cc2)CC1 [Example 48, 1-[4-(4-{(3R,4S)-4-(dimethylamino)-1-[(1R)-7-fluoro-2,3-dihydro-1H-inden-1-yl]pyrrolidin-3-yl}phenyl)piperazin-1-yl]ethan-1-one] | 7.74 |
| CN(C)[C@@H]1CN(C2CCc3cccc(F)c32)C[C@H]1c1cn(C)c2c(C(=O)O)cccc12 (stereo partly drawn) [Example 81, 3-[(3R,4S)-4-(dimethylamino)-1-(7-fluoro-2,3-dihydro-1H-inden-1-yl)pyrrolidin-3-yl]-1-methyl-1H-indole-7-carboxylic acid] | 7.01 |
| CN(C)[C@H]1CN(C2CCc3cccc(F)c32)C[C@@H]1c1cn(C)c2c(Br)cccc12 (mixture of isomers) [Example 93, rac-(3R,4S)-4-(7-bromo-1-methyl-1H-indol-3-yl)-1-(7-fluoro-2,3-dihydro-1H-inden-1-yl)-N,N-dimethylpyrrolidin-3-amine] | 8.56 |
| CN(C)[C@@H]1CN(C2CCc3cccc(F)c32)C[C@H]1c1ccc(C(=O)O)cc1 (mixture of isomers) [Example 29, rac-4-[(3R,4S)-4-(dimethylamino)-1-(7-fluoro-2,3-dihydro-1H-inden-1-yl)pyrrolidin-3-yl]benzoic acid] | 7.63 |
| CN(C)[C@H]1CN(C2CCc3cc(F)ccc32)C[C@@H]1c1cn(C)c2ccccc12 (mixture of isomers) [Example 91, rac-(3R,4S)-1-(5-fluoro-2,3-dihydro-1H-inden-1-yl)-N,N-dimethyl-4-(1-methyl-1H-indol-3-yl)pyrrolidin-3-amine] | 7.51 |
| CCS(=O)(=O)N1CCN(C(=O)c2ccc([C@H]3CN(C4CCc5cccc(F)c54)C[C@@H]3N(C)C)cc2)CC1 (mixture of isomers) [Example 57, rac-{4-[(3S,4R)-4-(dimethylamino)-1-(7-fluoro-2,3-dihydro-1H-inden-1-yl)pyrrolidin-3-yl]phenyl}[4-(ethanesulfonyl)piperazin-1-yl]methanone] | 7.91 |

Continued, values first:

| pIC50 | SMILES |
| --- | --- |
| 7.59 | CN(C)[C@H]1CN([C@@H]2CCc3cccc(F)c32)C[C@@H]1C1COc2ccccc21 (mixture of isomers) [Example 142, rac-(3R,4S)-4-(2,3-dihydro-1-benzofuran-3-yl)-1-[(1R)-7-fluoro-2,3-dihydro-1H-inden-1-yl]-N,N-dimethylpyrrolidin-3-amine] |
| 8.31 | CN(C)[C@H]1CN(C2CCc3cccc(F)c32)C[C@@H]1c1cn(C)c2cc(Br)ccc12 (mixture of isomers) [Example 94, rac-(3R,4S)-4-(6-bromo-1-methyl-1H-indol-3-yl)-1-(7-fluoro-2,3-dihydro-1H-inden-1-yl)-N,N-dimethylpyrrolidin-3-amine] |
| 7.47 | CN(C)[C@H]1CN(C2CCc3cccc(O)c32)C[C@@H]1c1cn(C)c2ccccc12 (stereo partly drawn) [Example 97, 3-[(3R,4S)-3-(dimethylamino)-4-(1-methyl-1H-indol-3-yl)pyrrolidin-1-yl]-2,3-dihydro-1H-inden-4-ol] |
| 7.21 | CN(C)[C@@H]1CN(C2CCc3cccc(F)c32)C[C@H]1c1cnc2n1CCCC2 (mixture of isomers) [Example 140, rac-(3S,4R)-1-(7-fluoro-2,3-dihydro-1H-inden-1-yl)-N,N-dimethyl-4-(5,6,7,8-tetrahydroimidazo[1,2-a]pyridin-3-yl)pyrrolidin-3-amine] |
| 8.46 | CN(C)[C@H]1CN(C2CCc3cccc(F)c32)C[C@@H]1c1cn(C)c2cc(N3CCN(S(C)(=O)=O)CC3)ccc12 (mixture of isomers) [Example 120, rac-(3R,4S)-1-(7-fluoro-2,3-dihydro-1H-inden-1-yl)-4-{6-[4-(methanesulfonyl)piperazin-1-yl]-1-methyl-1H-indol-3-yl}-N,N-dimethylpyrrolidin-3-amine] |
| 7.08 | CN(C)[C@@H]1CN([C@@H]2CCc3cccc(F)c32)C[C@H]1C1COc2ccccc21 (mixture of isomers) [Example 139, rac-(3S,4R)-4-(2,3-dihydro-1-benzofuran-3-yl)-1-[(1R)-7-fluoro-2,3-dihydro-1H-inden-1-yl]-N,N-dimethylpyrrolidin-3-amine] |
| 8.37 | CN(C)[C@H]1CN(C2CCc3ccc(F)c(F)c32)C[C@@H]1c1cn(C)c2ccccc12 (stereo partly drawn) [Example 96, (3R,4S)-1-(6,7-difluoro-2,3-dihydro-1H-inden-1-yl)-N,N-dimethyl-4-(1-methyl-1H-indol-3-yl)pyrrolidin-3-amine] |
| 8.42 | CC(=O)N1CCN(c2ccc3c([C@H]4CN(C5CCc6cccc(F)c65)C[C@@H]4N(C)C)cn(C)c3c2)CC1 (mixture of isomers) [Example 121, rac-1-(4-{3-[(3S,4R)-4-(dimethylamino)-1-(7-fluoro-2,3-dihydro-1H-inden-1-yl)pyrrolidin-3-yl]-1-methyl-1H-indol-6-yl}piperazin-1-yl)ethan-1-one] |
| 7.33 | CN(C)[C@H]1CN(C2CCc3cccc(F)c32)C[C@@H]1c1cn(C)c2ccncc12 (mixture of isomers) [Example 141, rac-(3R,4S)-1-(7-fluoro-2,3-dihydro-1H-inden-1-yl)-N,N-dimethyl-4-(1-methyl-1H-pyrrolo[3,2-c]pyridin-3-yl)pyrrolidin-3-amine] |
| 8.28 | CN(C)[C@@H]1CN(C2CCc3cccc(F)c32)C[C@H]1c1ccc(N2CCNCC2)nc1 (mixture of isomers) [Example 145, rac-(3S,4R)-1-(7-fluoro-2,3-dihydro-1H-inden-1-yl)-N,N-dimethyl-4-[6-(piperazin-1-yl)pyridin-3-yl]pyrrolidin-3-amine] |
| 7.71 | CN(C)[C@H]1CN([C@@H]2CCc3cccc(F)c32)C[C@@H]1c1cn(C)c2cccnc12 (mixture of isomers) [Example 143, rac-(3R,4S)-1-[(1R)-7-fluoro-2,3-dihydro-1H-inden-1-yl]-N,N-dimethyl-4-(1-methyl-1H-pyrrolo[3,2-b]pyridin-3-yl)pyrrolidin-3-amine] |
